Patent US20260327191A1, “GSK3a INHIBITORS AND METHODS OF USE THEREOF” (Blueprint Medicines Corporation, priority 2023, published 2026)

Tests used:
[1] = molecular target: T1, human GSK3α (Homo sapiens, UniProt P49840); assay: In vitro enzymatic activity assay, GSK3α; type: biochemical; conditions: 1.0 mM ATP, 1.0 μM peptide substrate, 120 min, 25° C, read-out: Enzyme GSK3α (IC50)
T1 construct: Full length human GSK3α or GSK3B expressed as N-terminal GST fusion proteins; GST (N); purchased Carna Biosciences (Japan); host or cells: baculovirus host
T1 sequence (P49840 whole entry, the tested form may be a part): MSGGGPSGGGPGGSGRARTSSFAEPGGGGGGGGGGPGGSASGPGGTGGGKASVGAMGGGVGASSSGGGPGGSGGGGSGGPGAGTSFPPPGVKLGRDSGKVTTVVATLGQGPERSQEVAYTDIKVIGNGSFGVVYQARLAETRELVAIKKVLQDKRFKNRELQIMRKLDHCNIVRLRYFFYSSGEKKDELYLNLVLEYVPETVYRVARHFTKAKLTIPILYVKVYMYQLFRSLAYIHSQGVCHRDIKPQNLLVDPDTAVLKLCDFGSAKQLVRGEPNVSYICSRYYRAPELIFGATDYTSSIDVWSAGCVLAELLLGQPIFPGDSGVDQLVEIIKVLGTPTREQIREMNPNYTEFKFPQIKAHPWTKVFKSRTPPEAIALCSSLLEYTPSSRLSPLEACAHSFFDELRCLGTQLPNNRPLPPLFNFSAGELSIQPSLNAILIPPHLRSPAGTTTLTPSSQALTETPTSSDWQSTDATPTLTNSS

[2] = molecular target: T2, GSK3A (Homo sapiens, UniProt P49840); assay: NanoBRET cellular target engagement assay, Nanoluc-GSK3A in HEK293 cells; type: cell-based; conditions: NanoBRET GSK3α IC50, HEK293 cells, tracer K-8, 2 hours, 37° C
T2 construct: expressed in transfected cells
T2 sequence (P49840 whole entry): as the sequence (P49840 whole entry, the tested form may be a part) above

[3] = molecular target: T3, GSK3B (Homo sapiens, UniProt P49841); assay: NanoBRET cellular target engagement assay, Nanoluc-GSK3B in HEK293 cells; type: cell-based; set-up: expressed in transfected cells; conditions: NanoBRET GSK3β IC50, HEK293 cells, tracer K-8, 2 hours, 37° C
T3 sequence (P49841 whole entry, the tested form may be a part): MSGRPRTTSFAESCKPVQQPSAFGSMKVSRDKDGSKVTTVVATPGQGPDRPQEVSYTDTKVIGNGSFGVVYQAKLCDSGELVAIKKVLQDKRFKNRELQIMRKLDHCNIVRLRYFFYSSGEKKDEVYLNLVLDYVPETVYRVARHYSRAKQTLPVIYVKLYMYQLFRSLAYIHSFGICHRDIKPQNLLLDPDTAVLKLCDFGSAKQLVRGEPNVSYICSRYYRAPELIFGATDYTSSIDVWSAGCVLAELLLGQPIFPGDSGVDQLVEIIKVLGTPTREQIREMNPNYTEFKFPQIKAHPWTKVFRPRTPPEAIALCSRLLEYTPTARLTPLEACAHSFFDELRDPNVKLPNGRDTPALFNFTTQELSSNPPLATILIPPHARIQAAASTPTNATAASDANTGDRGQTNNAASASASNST

[4] = molecular target: T3, GSK3B; assay: In vitro enzymatic activity assay, GSK3β; type: biochemical; set-up: Full length human GSK3α or GSK3B expressed as N-terminal GST fusion proteins; GST (N); purchased Carna Biosciences (Japan); host or cells: baculovirus host; conditions: 1.0 mM ATP, 1.0 μM peptide substrate, 120 min, 25° C, read-out: Enzyme GSK3β (IC50)

Row | SMILES | IC50 [1] [nM] | IC50 [2] [nM] | IC50 [3] [nM] | IC50 [4] [nM]
1 | COc1cc(Cl)c(-n2cnc(N)c(C(=O)Nc3cnc(F)c([C@@H]4CCCCN4)c3)c2=O)c(Cl)c1 (single isomer, unassigned) [Example 76, (S)-4-amino-1-(2,6-dichloro-4-methoxyphenyl)-N-(6-fluoro-5-(piperidin-2-yl)pyridin-3-yl)-6-oxo-1,6-dihydropyrimidine-5-carboxamide or (R)-4-amino-1-(2,6-dichloro-4-methoxyphenyl)-N-(6-fluoro-5-(piperidin-2-yl)pyridin-3-yl)-6-oxo-1,6-dihydropyrimidine-5-carboxamide] | 16 | 9.4 | 591 | 854
2 | COc1cc(Cl)c(-n2cnc(N)c(C(=O)Nc3cncc(C4CCC(C)N4)c3)c2=O)c(Cl)c1 (single isomer, unassigned) [Example 78] | 11.4 | 7.7 | 703 | 958
3 | COc1cc(Cl)c(-n2cnc(N)c(C(=O)Nc3cncc(C4CCC(C)N4)c3)c2=O)c(Cl)c1 (single isomer, unassigned) [Example 79] | 4.3 | 2.4 | 170 | 317
4 | CN[C@@H](COC)c1cncc(NC(=O)c2c(N)ncn(-c3c(Cl)cc(OC)cc3Cl)c2=O)c1 (single isomer, unassigned) [Example 80, (R)-4-amino-1-(2,6-dichloro-4-methoxyphenyl)-N-(5-(2-methoxy-1-(methylamino)ethyl)pyridin-3-yl)-6-oxo-1,6-dihydropyrimidine-5-carboxamide or (S)-4-amino-1-(2,6-dichloro-4-methoxyphenyl)-N-(5-(2-methoxy-1-(methylamino)ethyl)pyridin-3-yl)-6-oxo-1,6-dihydropyrimidine-5-carboxamide] | 2.5 | 2.9 | 271 | 270
5 | COc1cc(Cl)c(-n2cnc(N)c(C(=O)Nc3cncc([C@H]4CCC[C@H](C)N4)c3)c2=O)c(Cl)c1 (single isomer, unassigned) [Example 81] | 5.9 | 2.3 | 117 | 314
6 | COc1cc(Cl)c(-n2cnc(N)c(C(=O)Nc3cncc(C(N)CC(F)F)c3)c2=O)c(Cl)c1 (single isomer, unassigned) [Example 82, (R)-4-amino-N-(5-(1-amino-3,3-difluoropropyl)pyridin-3-yl)-1-(2,6-dichloro-4-methoxyphenyl)-6-oxo-1,6-dihydropyrimidine-5-carboxamide or (S)-4-amino-N-(5-(1-amino-3,3-difluoropropyl)pyridin-3-yl)-1-(2,6-dichloro-4-methoxyphenyl)-6-oxo-1,6-dihydropyrimidine-5-carboxamide] | 4.5 | 4 | 269 | 248
7 | COc1cc(Cl)c(-n2cnc(N)c(C(=O)Nc3cncc(C4CCCC(C)N4)c3)c2=O)c(Cl)c1 (single isomer, unassigned) [Example 83] | 7 | 4.1 | 336 | 490
8 | COc1cc(Cl)c(-n2cnc(N)c(C(=O)Nc3cncc([C@H]4CCC[C@H](C)N4)c3)c2=O)c(Cl)c1 (single isomer, unassigned) [Example 84] | 3.8 | 2.5 | 179 | 254
9 | COc1cc(Cl)c(-n2cnc(N)c(C(=O)Nc3cncc(C(N)CC(F)F)c3)c2=O)c(Cl)c1 (single isomer, unassigned) [Example 85, (R)-4-amino-N-(5-(1-amino-3,3-difluoropropyl)pyridin-3-yl)-1-(2,6-dichloro-4-methoxyphenyl)-6-oxo-1,6-dihydropyrimidine-5-carboxamide or (S)-4-amino-N-(5-(1-amino-3,3-difluoropropyl)pyridin-3-yl)-1-(2,6-dichloro-4-methoxyphenyl)-6-oxo-1,6-dihydropyrimidine-5-carboxamide] | 9.4 | 4.2 | 374 | 551
10 | Cc1cc(C(F)(F)F)cc(C)c1-n1cnc(N)c(C(=O)Nc2cncc(C3CCC(C)N3)c2)c1=O (single isomer, unassigned) [Example 87] | 17.9 | 7.6 | 543 | 1130
11 | CCC(N)c1cncc(NC(=O)c2c(N)ncn(-c3c(C)cc(C(F)(F)F)cc3C)c2=O)c1 (single isomer, unassigned) [Example 88, (R)-4-amino-N-(5-(1-aminopropyl)pyridin-3-yl)-1-(2,6-dimethyl-4-(trifluoromethyl)phenyl)-6-oxo-1,6-dihydropyrimidine-5-carboxamide or (S)-4-amino-N-(5-(1-aminopropyl)pyridin-3-yl)-1-(2,6-dimethyl-4-(trifluoromethyl)phenyl)-6-oxo-1,6-dihydropyrimidine-5-carboxamide] | 15.4 | 8.1 | 454 | 1020
12 | Cc1cc(C(F)(F)F)cc(C)c1-n1cnc(N)c(C(=O)Nc2cncc(C3CCCCCN3)c2)c1=O (single isomer, unassigned) [Example 89, (R)-4-amino-N-(5-(azepan-2-yl)pyridin-3-yl)-1-(2,6-dimethyl-4-(trifluoromethyl)phenyl)-6-oxo-1,6-dihydropyrimidine-5-carboxamide or (S)-4-amino-N-(5-(azepan-2-yl)pyridin-3-yl)-1-(2,6-dimethyl-4-(trifluoromethyl)phenyl)-6-oxo-1,6-dihydropyrimidine-5-carboxamide] | 10.2 | 6.4 | 485 | 669
13 | Cc1cc(C(F)(F)F)cc(C)c1-n1cnc(N)c(C(=O)Nc2cncc(C3CCCC(C)N3)c2)c1=O (single isomer, unassigned) [Example 90] | 15.6 | 6.5 | 700 | 1070
14 | CCOc1cc(C)c(-n2cnc(N)c(C(=O)Nc3cncc(C4CCC(C)N4)c3)c2=O)c(C)c1 (single isomer, unassigned) [Example 92] | 16.4 | 6.8 | 584 | 1030
15 | CCOc1cc(C)c(-n2cnc(N)c(C(=O)Nc3cncc(C4CCC(C)N4)c3)c2=O)c(C)c1 (single isomer, unassigned) [Example 93] | 31.7 | 9.3 | 914 | 1950
16 | CCOc1cc(C)c(-n2cnc(N)c(C(=O)Nc3cncc(C4CCCCCN4)c3)c2=O)c(C)c1 (single isomer, unassigned) [Example 95, (R)-4-amino-N-(5-(azepan-2-yl)pyridin-3-yl)-1-(4-ethoxy-2,6-dimethylphenyl)-6-oxo-1,6-dihydropyrimidine-5-carboxamide or (S)-4-amino-N-(5-(azepan-2-yl)pyridin-3-yl)-1-(4-ethoxy-2,6-dimethylphenyl)-6-oxo-1,6-dihydropyrimidine-5-carboxamide] | 9.8 | 4.3 | 290 | 465
17 | CCOc1cc(C)c(-n2cnc(N)c(C(=O)Nc3cncc(C4CCCC(C)N4)c3)c2=O)c(C)c1 (single isomer, unassigned) [Example 96] | 16.4 | 6.7 | 640 | 706
18 | COCc1cc(C)c(-n2cnc(N)c(C(=O)Nc3cncc(C4CCCCCN4)c3)c2=O)c(C)c1 (single isomer, unassigned) [Example 100, (R)-4-amino-N-(5-(azepan-2-yl)pyridin-3-yl)-1-(4-(methoxymethyl)-2,6-dimethylphenyl)-6-oxo-1,6-dihydropyrimidine-5-carboxamide or (S)-4-amino-N-(5-(azepan-2-yl)pyridin-3-yl)-1-(4-(methoxymethyl)-2,6-dimethylphenyl)-6-oxo-1,6-dihydropyrimidine-5-carboxamide] | 8.2 | 3.9 | 293 | 348
19 | COCc1cc(C)c(-n2cnc(N)c(C(=O)Nc3cncc(C4CCC(C)N4)c3)c2=O)c(C)c1 (single isomer, unassigned) [Example 101] | 19.6 | 7.8 | 800 | 941
20 | COCc1cc(C)c(-n2cnc(N)c(C(=O)Nc3cncc([C@H]4CCC[C@H](C)N4)c3)c2=O)c(C)c1 (single isomer, unassigned) [Example 102] | 16.5 | 5 | 584 | 684
21 | COCc1cc(C)c(-n2cnc(N)c(C(=O)Nc3cncc([C@H]4CC[C@H](C)N4)c3)c2=O)c(C)c1 (single isomer, unassigned) [Example 103] | 13.2 | 6.6 | 532 | 581
22 | CCOc1cc(C)c(-n2cnc(N)c(C(=O)Nc3cncc(C(C)N)c3)c2=O)c(C)c1 (single isomer, unassigned) [Example 104, (R)-4-amino-N-(5-(1-aminoethyl)pyridin-3-yl)-1-(4-ethoxy-2,6-dimethylphenyl)-6-oxo-1,6-dihydropyrimidine-5-carboxamide or (S)-4-amino-N-(5-(1-aminoethyl)pyridin-3-yl)-1-(4-ethoxy-2,6-dimethylphenyl)-6-oxo-1,6-dihydropyrimidine-5-carboxamide] | 16.2 | 7.9 | 521 | 746
